These results are taken from ChEMBL document CHEMBL3297647, “Biological evaluation of subglutinol a as a novel immunosuppressive agent for inflammation intervention” (ACS Med Chem Lett, 2014).

In assay [1] the test system is T-cell. The assay can be described thus: Induction of apoptosis in LLO118 TCR transgenic mouse LLO (190 to 205)-activated CD4-positive T cells assessed as dead undivided cells at 100 nM after 48 hrs by CFSE dilution/flow cytometric analysis (reference value: 14.7%). The class given is functional. A general note: In flow cytometry, cells or beads pass a laser one at a time.

Assay [2] has as its system T-cell. The assay can be described thus: Induction of apoptosis in LLO118 TCR transgenic mouse LLO (190 to 205)-activated CD4-positive T cells assessed as dead divided cells at 100 nM after 48 hrs by CFSE dilution/flow cytometric analysis (reference value: 3.04%). The format is functional.
Assay [3] is described as follows: Antiinflammatory activity in LLO118 TCR transgenic mouse IL-2-competent CD4-positive T cells assessed as inhibition of LLO (190 to 205)-induced IL-2 production at 1 nM for 2 days by flow cytometric analysis relative to control. The format is functional. The conditions noted are these: T-cell, 48 h.
In assay [4] the test system is T-cell. As to the kind of experiment: Antiinflammatory activity in LLO118 TCR transgenic mouse IL-2-competent CD4-positive T cells assessed as inhibition of LLO (190 to 205)-induced IL-2 production at 100 nM for 2 days by flow cytometric analysis. The format is functional, cell-based.
Assay [5] can be described thus: Antiinflammatory activity in LLO118 TCR transgenic mouse Th1 cells assessed as inhibition of IFN-gamma production at 10 nM for 2 days by flow cytometric analysis (reference value: 90%). The class given is functional. More on the design: scale not given: the % may be the effect or the level left.
For assay [6], the system named is Th17. As to the kind of experiment: Antiinflammatory activity in LLO118 TCR transgenic mouse Th17 cells assessed as inhibition of IL-17 production at 10 to 100 nM for 2 days by flow cytometric analysis. The format is functional, cell-based.
Assay [7] has as its system Th1. The assay can be described thus: Reduction in mitochondrial mass in LLO118 TCR transgenic mouse Th1 cells at 50 to 100 nM for 2 days by MitoTracker Deep Red FM staining-based flow cytometric analysis. The class given is functional, cell-based.
In assay [8] the test system is Th17. The assay can be described thus: Reduction in mitochondrial mass in LLO118 TCR transgenic mouse Th17 cells at 50 to 100 nM for 2 days by MitoTracker Deep Red FM staining-based flow cytometric analysis. The class given is functional, cell-based.
For assay [9], the system named is Th1. As to the kind of experiment: Induction of mitochondrial depolarization in LLO118 TCR transgenic mouse Th1 cells treated for 2 days by MitoTracker Orange CMTMRos staining-based flow cytometric analysis. The class given is functional, cell-based.
Assay [10] relates to Th17. The assay can be described thus: Induction of mitochondrial depolarization in LLO118 TCR transgenic mouse Th17 cells treated for 2 days by MitoTracker Orange CMTMRos staining-based flow cytometric analysis. The class given is functional, cell-based.
Assay [11] deals with BMDC. As to the kind of experiment: Induction of mitochondrial depolarization in B6 mouse immature BMDC at 100 nM for 1 day by MitoTracker Orange CMTMRos staining-based flow cytometric analysis. The format is functional.
The test system of assay [12] is BMDC. The assay can be described thus: Reduction in mitochondrial mass in B6 mouse immature BMDC at 100 nM for 1 day by MitoTracker Deep Red FM staining-based flow cytometric analysis. The format is functional.
The test system of assay [13] is BMDC. As to the kind of experiment: Reduction in mitochondrial mass in LPS-matured B6 mouse BMDC at 100 nM for 1 day by MitoTracker Deep Red FM staining-based flow cytometric analysis. The class given is functional.
Assay [14] concerns BMDC. As to the kind of experiment: Induction of mitochondrial depolarization in LPS-matured B6 mouse BMDC at 100 nM for 1 day by MitoTracker Orange CMTMRos staining-based flow cytometric analysis. The class given is functional.
In assay [15] the test system is Mus musculus. As to the kind of experiment: Immunosuppressive activity in C57BL/6J mouse KLH-induced delayed-type hypersensitivity model assessed as alleviation of footpad swelling at 16 nmol administered on day 7 and 8 post-sensitization measured on day 9. The class given is functional, organism-based.
The subject of assay [16] is Mus musculus. As to the kind of experiment: Immunosuppressive activity in C57BL/6J mouse KLH-induced delayed-type hypersensitivity model assessed as blockade of lymphocyte accumulation at 16 nmol administered on day 7 and 8 post-sensitization measured on day 9. The format is functional, organism-based.
Assay [17] relates to Mus musculus. The assay can be described thus: Immunosuppressive activity in C57BL/6J mouse KLH-induced delayed-type hypersensitivity model assessed as amelioration of tissue injury at 16 nmol administered on day 7 and 8 post-sensitization measured on day 9. The format is functional, organism-based.
The subject of the next assay is Lymphocyte. As to the kind of experiment: Immunosuppressive activity in lymphocytes by MLR assay. The format is functional, cell-based.
The nature of assay [18]: Immunosuppressive activity in C57Bl/6 mouse lymphocytes assessed as inhibition of cell proliferation co-incubated with BALB/c mouse stimulator lymphocytes after 72 hrs by [3H]-thymidine incorporation assay. The format is functional, cell-based. The following applies: C57Bl/6, Lymphocyte. In general terms: Incorporation of labelled thymidine or its analogues reports DNA synthesis.

The subject of assay [19] is T-cell. As to the kind of experiment: Induction of apoptosis in pMel-1 TCR transgenic C57BL/6 mouse gp100 (25 to 33)-activated CD8-positive T cells assessed as live divided cells at 100 nM after 48 hrs by CFSE dilution/flow cytometric analysis (reference value: 55.2%). The class given is functional.
Assay [20] relates to T-cell. The assay can be described thus: Induction of apoptosis in pMel-1 TCR transgenic C57BL/6 mouse gp100 (25 to 33)-activated CD8-positive T cells assessed as live undivided cells at 100 nM after 48 hrs by CFSE dilution/flow cytometric analysis (reference value: 23.4%). The class given is functional.
Assay [21] relates to T-cell. The assay can be described thus: Induction of apoptosis in pMel-1 TCR transgenic C57BL/6 mouse gp100 (25 to 33)-activated CD8-positive T cells assessed as dead undivided cells at 100 nM after 48 hrs by CFSE dilution/flow cytometric analysis (reference value: 6.77%). The format is functional.
Assay [22] deals with T-cell. The assay can be described thus: Induction of apoptosis in pMel-1 TCR transgenic C57BL/6 mouse gp100 (25 to 33)-activated CD8-positive T cells assessed as dead divided cells at 100 nM after 48 hrs by CFSE dilution/flow cytometric analysis (reference value: 14.7%). The class given is functional.
Assay [23] concerns T-cell. The assay can be described thus: Induction of apoptosis in LLO118 TCR transgenic mouse LLO (190 to 205)-activated CD4-positive T cells assessed as live divided cells at 100 nM after 48 hrs by CFSE dilution/flow cytometric analysis (reference value: 40.6%). The class given is functional.
Assay [24] concerns T-cell. As to the kind of experiment: Induction of apoptosis in LLO118 TCR transgenic mouse LLO (190 to 205)-activated CD4-positive T cells assessed as live undivided cells at 100 nM after 48 hrs by CFSE dilution/flow cytometric analysis (reference value: 41.6%). The class given is functional.

For orientation: inhibition means the relative decrease from the control value, in per cent. A word on the IC50: it is the point on the concentration scale where inhibition reaches its midpoint.

Active and inactive are the calls of the source. No cut-off for these calls is given here. Where only a bound is given, the exact number is not on record here.

`C=C1CC[C@H]2[C@]3(C)C[C@@H](C=C(C)C)O[C@H]3CC[C@]2(C)[C@@H]1Cc1c(O)c(C)c(C)oc1=O` [SUBGLUTINOL A]: the Activity was 82.6% in the assay with T-cell [1]; 3.29% with T-cell [2]; <1% in assay [5]; “Dose-dependent effect” with Th1 [9]; “Dose-dependent effect” with Th17 [10]; 1.04% with T-cell [19]. The Activity in the assay with T-cell [20] came to 12.3%; with T-cell [21] it was 83.6%; in the assay on T-cell [22] it was 3.09%; with T-cell [23] it was 0.73%; in the assay on T-cell [24] it was 13.4%. The inhibition at 0.001 µM in assay [3] came to 50%. The inhibition result in the assay on T-cell [4] and in the assay with Th17 [6] was “Active” throughout. Further, the outcome with Th1 [7], in the assay on Mus musculus [15], with Mus musculus [16] and in the assay with Mus musculus [17] was Active. Further, the result in the assay with Th17 [8], in the assay with BMDC [11], in the assay with BMDC [12], with BMDC [13] and in the assay with BMDC [14] was inactive. Further, the IC50 in the assay on Lymphocyte turned out to be 25 nM; in [18], 100 nM.
As for `C/C=C/C[C@@H](C)[C@@H](O)[C@H]1C(=O)N[C@@H](CC)C(=O)N(C)CC(=O)N(C)[C@@H](CC(C)C)C(=O)N[C@@H](C(C)C)C(=O)N(C)[C@@H](CC(C)C)C(=O)N[C@@H](C)C(=O)N[C@H](C)C(=O)N(C)[C@@H](CC(C)C)C(=O)N(C)[C@@H](CC(C)C)C(=O)N(C)[C@@H](C(C)C)C(=O)N1C` [CYCLOSPORINE], the Activity worked out at 86.1% in the assay on T-cell [1]; 10.9% with T-cell [2]; 0.68% with T-cell [19]; 2.01% with T-cell [20]; 86.5% in the assay with T-cell [21]; 10.8% with T-cell [22]. Further, the Activity in the assay on T-cell [23] stood at 1.02%; in the assay with T-cell [24], 1.94%. This molecule also showed an IC50 in the assay on Lymphocyte of 89 nM.
Take `C=C1CC[C@H]2[C@]3(C)C[C@H](C=C(C)C)O[C@H]3CC[C@]2(C)[C@@H]1Cc1c(O)c(C)c(C)oc1=O` [SUBGLUTINOL B]: the IC50 in [18] was 100 nM.
